For 10 compounds, MIC results are on record in patent US5209930A, “Preparation and use of N-iodopropargyl oxycarbonyl amino acid esters and derivatives as antimicrobial agents” (Rohm and Haas Company, priority 1990, dated 1993).

What all share (assay): MIC, broth two-fold serial dilution test
For one assay, the system named is Aspergillus niger (ANIG). In kind it is cell-based, ATCC 6275. As to conditions: Aspergillus niger (F); M9G (minimal salts media with glucose); read-out: minimum inhibitory concentration (MIC), ANIG. Here is the method:
(§1) Biocidal evaluations (bactericidal, algicidal, and fungicidal) were carried out.
(§2) A minimum inhibitory concentration (MIC) value is obtained using a broth, two-fold serial dilution test performed as follows: A stock solution or dispersion of the test compound, typically at a concentration of 1%, is made in a 5:3:2 solvent solution of acetone, methanol, and water. A volume of the stock solution is dispensed into culture media to give an initial starting test concentration of 500 ppm compound.
(§3) When the test is ready to be done, each vessel in the dilution series, except the first vessel, contains an equal volume of compound free broth. The first vessel contains twice the volume of broth with the starting concentration of test compound. One half of the broth from the first vessel is transferred to the second vessel. After being mixed, one half the resulting volume is removed from the second vessel and transferred to the third vessel. The entire cycle is repeated sufficiently to give a series of concentrations amounting to 500, 250, 125, 63, 31, 16, 8, and 4 ppm (or 100, 50, 25, 12.5, 6.2, 3.1, 1.6, and 0.8), respectively.
(§4) Each vessel is then inoculated with a cell suspension of the appropriate test organism. Bacteria are grown in broth, fungi on agar slants for a time and at a temperature appropriate to the species being tested, and algae are a mixture of green algae and blue-green bacteria grown in a nutrient media. At the end of the growth period, in the case of bacteria, the broth is vortexed to disperse the cells.
(§5) In the case of fungi, the spores are harvested by pipetting water onto the slant and dislodging the spores with a sterile loop. The cell/spore suspension is standardized by controlling incubation time, temperature, and the volume of the diluent. The suspension is then used to inoculate the vessels containing the broth compound.
(§6) The vessels are then incubated at the appropriate temperature. After the incubation, the vessels are examined for growth/no growth. The minimum inhibitory concentration (MIC) is defined as the lowest concentration of compound that results in complete inhibition of growth of the test organism.
(§7) These compounds were tested in M9G
(§8) (minimal salts media with glucose)

A further assay relates to Escherichia coli (ECOL). In kind it is cell-based, gram negative, ATCC 11229. The conditions noted are these: Escherichia coli (G-); M9G (minimal salts media with glucose); read-out: minimum inhibitory concentration (MIC), ECOL. As for the experimental part:
as §1, §2, §3, §4, §6
Escherichia coli (ECOL), gram negative
as §7, §8

The test system of assay [1] is Pseudomonas aerugenosa (PSAE). Format: cell-based, gram negative, ATCC 15442. The conditions noted are these: Pseudomonas aeruginosa (G-); M9G (minimal salts media with glucose); read-out: minimum inhibitory concentration (MIC), PSAE. As for the experimental part:
as §1, §2, §3, §4, §6
Pseudomonas aerugenosa (PSAE), gram negative
as §7, §8
1. Pseudomonas aeruginosa (-)

In assay [2] the test system is Aureobasidium pullulans (APUL). In kind it is cell-based, ATCC 9348. As to conditions: Aureobasidium pullulans (F); M9G (minimal salts media with glucose); read-out: minimum inhibitory concentration (MIC), APUL. Here is the method:
as §1, §2, §3, §4, §5, §6
Aureobasidium pullulans (APUL)
as §7, §8
6. Aureobasidium pullulans

The subject of assay [3] is Pseudomonas fluorescens (PSFL). Format: cell-based, gram negative, ATCC 948. As to conditions: Pseudomonas fluorescens (G-); M9G (minimal salts media with glucose); read-out: minimum inhibitory concentration (MIC), PSFL. Here is the method: as §1, §2, §3, §4, §6
Pseudomonas fluorescens (PSFL), gram negative
as §7, §8
4. Pseudomonas fluorescens (-)

In assay [4] the test system is Staphylococcus aureus (SAUR). Format: cell-based, gram positive, ATCC 6538. As to conditions: Staphylococcus aureus (G+); M9G (minimal salts media with glucose); read-out: minimum inhibitory concentration (MIC), SAUR. As for the experimental part: as §1, §2, §3, §4, §6
Staphylococcus aureus (SAUR), gram positive
as §7, §8
2. Staphylococcus aureus (+)

The subject of the next assay is ALGAE. Format: cell-based, mixture of green algae and blue-green bacteria. The conditions noted are these: green algae and blue-green bacteria; culture in Allen's medium; read-out: minimum inhibitory concentration (MIC), ALGAE. Here is the method:
as §1, §2, §3
Each vessel is then inoculated with a cell suspension of the appropriate test organism. […]

≈ marks a conversion by molar mass, not a printed value.

As for `O=C(N[C@@H](Cc1ccccc1)C(=O)O)OCC#CI` [Compound 8, N-iodopropargyloxycarbonyl phenylalanine], the MIC was 250 µg/mL in the assay on Aspergillus niger (ANIG); < 4 µg/mL in the assay on Escherichia coli (ECOL); 250 µg/mL in assay [1]; 250 µg/mL in assay [2]; 63 µg/mL in assay [3]; 125 µg/mL in assay [4].

Regarding `CCCCCCCCOC(=O)[C@H](Cc1ccccc1)NC(=O)OCC#CI` [Compound 10, N-iodopropargyloxycarbonyl phenylalanine n-octyl ester], the MIC in the assay with Aspergillus niger (ANIG) is 125 µg/mL; with Escherichia coli (ECOL), < 4 µg/mL; in assay [1], 63 µg/mL; in assay [2], 125 µg/mL; in assay [3], 32 µg/mL; in assay [4] it was 32 µg/mL.

Consider `C[C@H](NC(=O)OCC#CI)C(=O)O` [Compound 5, N-iodopropargyloxycarbonyl alanine], for which the MIC in the assay on Aspergillus niger (ANIG) was 125 µg/mL; in the assay on Escherichia coli (ECOL), 125 µg/mL; in assay [1] it was > 500 µg/mL; in assay [2], 32 µg/mL; in assay [3], 125 µg/mL; in assay [4] it was 250 µg/mL.

Regarding `CCCCCCCCOC(=O)CNC(=O)OCC#CI` [Compound 3, N-Iodopropargyloxycarbonyl glycine n-octyl ester], the MIC with Aspergillus niger (ANIG) is < 4 µg/mL; in the assay with Escherichia coli (ECOL) it was > 500 µg/mL; in assay [1] it was > 500 µg/mL; in assay [2] it was < 4 µg/mL; in assay [3], 8 µg/mL; in assay [4], 8 µg/mL.

Turning to `O=C(O)CNC(=O)OCC#CI` [Compound 1, N-iodopropargyloxycarbonyl glycine], the MIC in the assay on Aspergillus niger (ANIG) was > 500 µg/mL; in the assay with Escherichia coli (ECOL) it was 250 µg/mL; in assay [1] it was > 500 µg/mL; in assay [2], > 500 µg/mL; in assay [3], 250 µg/mL; in assay [4], 250 µg/mL.

Turning to `COC(=O)[C@H](Cc1ccccc1)NC(=O)OCC#CI` [Compound 9, N-iodopropargyloxycarbonyl phenylalanine methyl ester], the MIC is < 4 µg/mL in the assay with Aspergillus niger (ANIG); > 500 µg/mL in the assay on Escherichia coli (ECOL); > 500 µg/mL in assay [1]; < 4 µg/mL in assay [2]; 125 µg/mL in assay [3]; 125 µg/mL in assay [4].

For `COC(=O)[C@H](C)NC(=O)OCC#CI` [Compound 6, N-iodopropargyloxycarbonyl alanine methyl ester], the MIC with Aspergillus niger (ANIG) is < 4 µg/mL; in the assay with Escherichia coli (ECOL), < 4 µg/mL; in assay [1], 32 µg/mL; in assay [2], < 4 µg/mL; in assay [3], < 4 µg/mL; in assay [4] it was 16 µg/mL.

With `O=C(CNC(=O)OCC#CI)OCC#CI` [Compound 4, N-iodopropargyloxycarbonyl glycine iodopropargyl ester], the MIC in the assay with ALGAE was 12.5 µg/mL (≈ 28 µM); in the assay with Aspergillus niger (ANIG), < 0.12 µg/mL; with Escherichia coli (ECOL), 125 µg/mL; in assay [1], 125 µg/mL; in assay [2], < 0.12 µg/mL; in assay [3] it was 32 µg/mL. In addition, in assay [4], the MIC was 32 µg/mL.

`CCCCCCCCOC(=O)[C@H](C)NC(=O)OCC#CI` [Compound 7, N-iodopropargyloxycarbonyl alanine n-octyl ester]: the MIC in the assay with Aspergillus niger (ANIG) was < 4 µg/mL; in the assay with Escherichia coli (ECOL), < 4 µg/mL; in assay [1] it was 125 µg/mL; in assay [2], < 63 µg/mL; in assay [3] it was 8 µg/mL; in assay [4], 63 µg/mL.

On to `COC(=O)CNC(=O)OCC#CI` [Compound 2, N-iodopropargyloxycarbonyl glycine methyl ester], for which the MIC with Aspergillus niger (ANIG) was < 4 µg/mL; with Escherichia coli (ECOL), 32 µg/mL; in assay [1], 32 µg/mL; in assay [2], < 4 µg/mL; in assay [3], 16 µg/mL; in assay [4] it was 16 µg/mL.
